{"source": "patent US20190307886A1", "about": "“A CO-AMORPHOUS FORM OF A SUBSTANCE AND A PROTEIN” (University of Copenhagen, priority 2016, published 2019)", "format_in_all_cases": "physicochemical", "key": {"[1]": {"experiment": "Thermogravimetric analysis for measurement of residual moisture", "conditions": "Table 1a; amorphous drugs and spray dried forms with WPI, WPH, WPI components, digested WPI, PVP", "experimental": "Thermogravimetric analysis for measurement of residual moisture:\nThermogravimetric analysis was performed on a TGA Discovery instrument (TA Instruments, New Castle, USA). Samples of 10 mg were placed in a platinum pan and sealed with a lid and heated from 25 to 300° C. at 10° C./min. Resulting weight-temperature diagrams were analyzed using Trios software (TA Instruments, New Castle, USA) to calculate the weight loss between 25 and 150° C."}, "[2]": {"experiment": "Physical stability on storage over silica gel at room temperature, XRPD", "conditions": "recrystallization shown by XRPD", "experimental": "The molecular interactions of the drug substance-WPI/WPH mixtures were investigated by XRPD using an X'Pert PANanalytical PRO X-ray diffractometer (PANanalytical, Almelo, The Netherlands) with Cukα radition: 1.54187 Å, current: 40 mA and acceleration voltage: 45 kV. Each of the co-amorphous forms obtained either by spray drying or ball milling were scanned (scan rate of 0.067° 2θ/s and step size of 0.026°) with reflectance mode between 2° and 35° 2θ. The collected data was analysed using X'Pert PANanalytical Collector software (PANanalytical, Almelo, The Netherlands).\nAll samples were stored in a desiccator over silica gel (0% relative humidity) at room temperature and a physical stability study was performed for all SD samples. Each sample was analyzed by XRPD at day 0 and subsequently once every month thereafter."}, "[3]": {"experiment": "Intrinsic dissolution rate from powder compacts", "conditions": "for y (mg cm^−2 min^−1), line equation of intrinsic dissolution testing; slope = intrinsic dissolution rate: Table 2a, 0.1 M phosphate buffer pH 7.2, 37° C., 50 rpm; for intrinsic dissolution rate (IDR): phosphate buffer pH 7.2, 37° C.", "procedure": "The intrinsic dissolution rate (IDR) was determined from powder compacts obtained with a hydraulic press (PerkinElmer, Hydraulische Presse Model IXB-102-9, Ueberlingen, Germany). Ball-milled powders of pure drug and spray dried powders of drug-protein mixtures were compressed into tablets. Tablets of 150 mg were directly compressed into stainless steel cylinders that served as intrinsic dissolution sample holders at a pressure of 124.9 MPa for 45 secs. […] These cylinders were then placed in 900 ml of 0.1 M phosphate buffer (pH 7.2, 37° C.) dissolution medium and stirred using a magnetic bar at a rotation speed of 50 rpm. At predetermined time points (1, 5, 10, 15, 20, 25 and 30 min, some IDRs were only determined up to 20 min), 5 ml aliquots were withdrawn and immediately replaced with dissolution buffer. The obtained samples were then analyzed using UV spectrophotometer (see below). All dissolution experiments were conducted in triplicate."}, "[4]": {"experiment": "Powder dissolution (USP II apparatus)", "experimental": "Powder dissolution was performed in USP type II apparatus. […] The dissolution paddles were rotated at 50 rpm […] taking samples out at 1, 3, 5, 7, 10, 15, 20, 25, 30, 35, 40, 50, 60 and 120 mins. Each sample of 5 ml was taken out and replaced by dissolution medium. To separate powders from medium, the samples were filtered through a 0.45 μm syringe filter (Qmax, Frisinette ApS) and the first 2 ml was discarded to minimize losses due to adsorption. The samples were examined using UV Vis to analyze the drug concentration."}}}
{"compound": "COc1ccccc1OCCNCC(O)COc1cccc2[nH]c3ccccc3c12", "note": "(centres unmarked) [A CAR, carvedilol]", "values": [{"measurement": "TGA (residual moisture content in %)", "setting": "[1]", "result": "3.1 ± 0.3", "unit": "%"}, {"measurement": "time found to be stable (in words)", "setting": "[2]", "result": "less than a week"}, {"measurement": "y (mg cm^−2 min^−1), line equation of intrinsic dissolution testing; slope = intrinsic dissolution rate", "setting": "[3]", "result": "y = 0.0214x + 2.973 mg cm^−2 min^−1"}, {"measurement": "intrinsic dissolution rate (IDR)", "setting": "[3]; listed as ball milled amorphous CAR", "result": 0.0214, "unit": "mg cm^−2 min^−1"}, {"measurement": "fold increase in IDR compared to crystalline CAR", "setting": "[3]; vs C CAR", "result": 1.8, "unit": "fold"}]}
{"compound": "NS(=O)(=O)c1cc(C(=O)O)c(NCc2ccco2)cc1Cl", "note": "[A FUR, furosemide]", "values": [{"measurement": "TGA (residual moisture content in %)", "setting": "[1]", "result": "3.6 ± 0.3", "unit": "%"}, {"measurement": "time found to be stable (in words)", "setting": "[2]", "result": "less than a week"}]}
{"compound": "COc1ccc2c(c1)c(CC(=O)O)c(C)n2C(=O)c1ccc(Cl)cc1", "note": "[A IND, indomethacin]", "values": [{"measurement": "powder dissolution (comparison in words)", "setting": "[4]; USP type II, 200 mg in 50 ml phosphate buffer pH 7.2, 50 rpm", "result": "more dissolution than the PM IND-WPI"}, {"measurement": "solubility of IND in its amorphous state", "setting": "[4]; phosphate buffer pH 7.2, vs crystalline IND", "result": "more than double the value crystalline IND"}, {"measurement": "TGA (residual moisture content in %)", "setting": "[1]", "result": "3.2 ± 0.4", "unit": "%"}, {"measurement": "time found to be stable (in words)", "setting": "[2]", "result": "less than a week"}, {"measurement": "y (mg cm^−2 min^−1), line equation of intrinsic dissolution testing; slope = intrinsic dissolution rate", "setting": "[3]", "result": "y = 0.1333x + 4.5538 mg cm^−2 min^−1"}, {"measurement": "intrinsic dissolution rate (IDR)", "setting": "[3]; listed as amorphous ball milled IND", "result": 0.1333, "unit": "mg cm^−2 min^−1"}]}
{"compound": "CC(=O)Nc1ccc(O)cc1", "note": "[A PAR, paracetamol]", "values": [{"measurement": "time found to be stable (in words)", "setting": "[2]", "result": "less than a week"}, {"measurement": "y (mg cm^−2 min^−1), line equation of intrinsic dissolution testing; slope = intrinsic dissolution rate", "setting": "[3]", "result": "y = 0.201x + 4.5947 mg cm^−2 min^−1"}, {"measurement": "intrinsic dissolution rate (IDR)", "setting": "[3]; listed as ball milled amorphous PAR", "result": 0.201, "unit": "mg cm^−2 min^−1"}, {"measurement": "fold increase in IDR compared to crystalline PAR", "setting": "[3]; vs C PAR", "result": 1.2, "unit": "fold"}]}
{"compound": "COc1ccccc1OCCNCC(O)COc1cccc2[nH]c3ccccc3c12", "note": "(centres unmarked) [C CAR, carvedilol]", "values": [{"measurement": "y (mg cm^−2 min^−1), line equation of intrinsic dissolution testing; slope = intrinsic dissolution rate", "setting": "[3]", "result": "y = 0.0117x + 2.8082 mg cm^−2 min^−1"}, {"measurement": "intrinsic dissolution rate (IDR)", "setting": "[3]; listed as crystalline CAR", "result": 0.0117, "unit": "mg cm^−2 min^−1"}]}
{"compound": "COc1ccc2c(c1)c(CC(=O)O)c(C)n2C(=O)c1ccc(Cl)cc1", "note": "[C IND, indomethacin]", "values": [{"measurement": "y (mg cm^−2 min^−1), line equation of intrinsic dissolution testing; slope = intrinsic dissolution rate", "setting": "[3]", "result": "y = 0.0787x + 4.006 mg cm^−2 min^−1"}, {"measurement": "intrinsic dissolution rate (IDR)", "setting": "[3]; listed as crystalline IND", "result": 0.0787, "unit": "mg cm^−2 min^−1"}]}
{"compound": "CC(=O)Nc1ccc(O)cc1", "note": "[C PAR, paracetamol]", "values": [{"measurement": "y (mg cm^−2 min^−1), line equation of intrinsic dissolution testing; slope = intrinsic dissolution rate", "setting": "[3]", "result": "y = 0.1632x + 2.3462 mg cm^−2 min^−1"}, {"measurement": "intrinsic dissolution rate (IDR)", "setting": "[3]; listed as crystalline PAR", "result": 0.1632, "unit": "mg cm^−2 min^−1"}]}
